Target: T1, human CCR1 (Homo sapiens, UniProt P32246)
T1 sequence (P32246 1-355): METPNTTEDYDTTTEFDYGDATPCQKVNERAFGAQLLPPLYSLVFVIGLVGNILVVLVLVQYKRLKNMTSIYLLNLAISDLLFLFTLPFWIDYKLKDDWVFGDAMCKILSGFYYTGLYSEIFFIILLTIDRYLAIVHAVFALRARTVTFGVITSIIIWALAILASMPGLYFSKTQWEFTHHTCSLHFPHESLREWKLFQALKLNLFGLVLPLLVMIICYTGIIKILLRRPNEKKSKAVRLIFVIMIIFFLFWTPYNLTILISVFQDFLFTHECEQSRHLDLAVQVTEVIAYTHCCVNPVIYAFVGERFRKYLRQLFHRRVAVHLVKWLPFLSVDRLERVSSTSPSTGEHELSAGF
Assay: CCR1 binding protocol (SPA, [125I]-MIP-1α displacement)
Conditions: cell membrane expressing human CCR1, 0.1 nM [125I]-MIP-1α, 4 hours at ambient temperature; read-out: Relative potency (IC50)
Outline: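 Human CCR1 membranes (0.5 μg/well) on SPA beads were incubated with compound and 0.1 nM [125I]-MIP-1α (final) for 4 h at ambient temperature. Buffer was Tris pH 7.4 with NaCl, KCl, MnCl and 0.1% BSA. IC50 came from ½-log compound dilutions (10 mM top DMSO stock) by displacement of bound radioligand.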

SMILES | IC50
O=C(NC1CCCOc2cccc(Cl)c21)N1CCC[C@@H]1c1ncnn1Cc1ccc(Cl)cc1 (some centres unmarked) [Compound 87] | 50 to 500 nM
Cc1nnc([C@H]2CCCN2C(=O)Nc2ccc(C(C)C)cc2C(F)(F)F)n1Cc1ccc(Cl)cc1 [Compound 278] | < 50 nM
O=C(N[C@@H]1CCS(=O)(=O)c2ccc(Cl)cc21)N1CCC[C@@H]1c1nnc(CO)n1Cc1ccc(Cl)cc1 [Compound 370] | < 50 nM
O=C(Nc1ccc(Cl)cc1F)N1CCC[C@@H]1c1nnc(CO)n1Cc1ccc(Cl)cc1 [Compound 310] | 50 to 500 nM
CC1(C)CC[C@H](NC(=O)N2CCC[C@@H]2c2ncnn2Cc2ccc(Cl)cc2)c2ccccc21 [Compound 79] | 500 to 5000 nM
Cc1nnc([C@H]2C[C@H](O)CN2C(=O)Nc2ccc(C(F)(F)F)nc2Cl)n1Cc1ccc(Cl)cc1 [Compound 491] | < 50 nM
Cc1nnc([C@H]2C3CC3CN2C(=O)Nc2ccc(Cl)cc2F)n1Cc1ccc(Cl)cc1 (some centres unmarked) [Compound 565] | 50 to 500 nM
Cc1nnc([C@H]2CCCN2c2c(Nc3ccc(Cl)cc3F)c(=O)c2=O)n1Cc1ccc(Cl)cc1 [Compound 536] | 500 to 5000 nM
O=C(Nc1ccc(Cl)c(C(F)(F)F)c1)N1CCC[C@@H]1c1ncnn1Cc1ccc(Cl)cc1 [Compound 448] | 50 to 500 nM
O=C(Nc1ccc(C(F)(F)F)cc1)N1CCC[C@@H]1c1nnnn1Cc1ccc(Cl)cc1 [Compound 53] | < 50 nM
O=C(N[C@H]1CCOc2cc(C(F)(F)F)ccc21)N1C[C@H](O)C[C@@H]1c1nncn1Cc1ccc(Cl)cc1 [Compound 472] | < 50 nM
Cc1nnc([C@H]2CCCN2C(=O)NC2(c3ccccc3F)CC2)n1Cc1ccc(Cl)cc1 [Compound 273] | < 50 nM
O=C(N[C@H]1CCOc2cc(C(F)(F)F)ccc21)N1CCC[C@@H]1c1nnc(CO)n1Cc1ccc(Cl)cc1 [Compound 308] | < 50 nM
Cc1nnc([C@H]2CCCN2C(=O)N[C@H]2CCOc3cc(F)ccc32)n1Cc1ccc(Cl)cc1 [Compound 152] | < 50 nM
Cc1nc([C@H]2CCCN2C(=O)N[C@H]2CCOc3cc(C(F)(F)F)ccc32)n(Cc2ccc(Cl)cc2)n1 [Compound 96] | 500 to 5000 nM
Cc1nnc([C@H]2CCCN2C(=O)Cc2cccc(Cl)c2)n1Cc1ccc(Cl)cc1 [Compound 497] | 50 to 500 nM
Cc1c(NC(=O)N2CCC[C@@H]2c2nnc(C)n2Cc2ccc(Cl)cc2)ccc(C#N)c1Cl [Compound 528] | < 50 nM
O=C(Nc1ccc(Cl)c(C(F)(F)F)c1)N1CCC[C@@H]1c1nccn1Cc1ccc(Cl)cc1 [Compound 41] | 50 to 500 nM
Cc1nnc([C@H]2CCCN2C(=O)Nc2ccc3c(c2)N(C)C(=O)CO3)n1[C@H](C)c1ccc(Cl)cc1 [Compound 352] | 50 to 500 nM
Cc1cc(C(F)(F)F)ccc1NC(=O)N1CCC[C@@H]1c1nnc(C)n1Cc1ccc(Cl)cc1 [Compound 190] | < 50 nM
Cc1noc(-c2ccccc2)c1NC(=O)N1CCC[C@@H]1c1nnc(C(F)(F)F)n1Cc1ccc(Cl)cc1 [Compound 226] | 50 to 500 nM
Cc1nnc([C@H]2CCCN2C(=O)Nc2cc(C(=O)O)ccc2C(F)(F)F)n1Cc1ccc(Cl)cc1 [Compound 335] | 500 to 5000 nM
Cc1nnc([C@H]2CCCN2C(=O)N[C@H]2CCOc3ccc(F)cc32)n1Cc1ccc(Cl)cc1 [Compound 157] | 50 to 500 nM
Cc1nnc([C@H]2CCCN2C(=O)Nc2cc(Cl)ccc2F)n1Cc1ccc(Cl)cc1 [Compound 419] | 50 to 500 nM
CC(=O)N1CCC(NC(=O)N2CCC[C@@H]2c2nnc(C)n2Cc2ccc(Cl)cc2)CC1 [Compound 450] | 500 to 5000 nM
Cc1nnc([C@H]2CC(C)(O)CN2C(=O)N[C@H]2CCOc3cc(C(F)(F)F)ccc32)n1Cc1ccc(Cl)cc1 (some centres unmarked) [Compound 526] | 50 to 500 nM
Cc1ccc(S(C)(=O)=O)c(C)c1NC(=O)N1CCC[C@@H]1c1nnc(C)n1Cc1ccc(Cl)cc1 [Compound 406] | < 50 nM
Cc1nnc([C@H]2CCCN2C(=O)Nc2ccc(Cl)cc2C(F)(F)F)n1Cc1ccc(Cl)cc1 [Compound 405] | < 50 nM
Cc1nnc([C@H]2C[C@H](O)CN2C(=O)Nc2ccc(C(F)(F)F)cc2)n1Cc1ccc(Cl)cc1 [Compound 388] | 50 to 500 nM

Source: US8288371B2, “Ortho pyrrolidine, benzyl-substituted heterocycle CCR1 antagonists for autoimmune diseases and inflammation” (Pharmacopeia, LLC, priority 2007, dated 2012)
